In paper PMC12956279 (2026):

Tests used:
Assay in all cases: in-gel dye staining after TBE-urea PAGE
Conditions in all cases: 100 mM KCl, 1 mM MgCl2; 40 mM HEPES pH 7.5, 10 µM dye; very low fluorescence
[1] = system: 4LE-v1 (DNA, aptamer) TCCTTCGCACAGCACATAGTAGGGATGATGCGGCAGTGGGCTTCGCAGAACAGTGTTTATTCTGCGAGGGGACTACCTGCCGTATAGCTCTGAATCAAGGATTTTAGGGAGGCGATTCCTCCTGCC
[2] = system: 4LE-v2 (DNA, aptamer) TCCTTCGCACAGCACACCTGCCGTATTAGTAGGGATGATGCGGCAGTGGGCTTCGCAGAACAGTGTTTATTCTGCGAGGGGACTAAGCTCTGAATCAAGGATTTTAGGGAGGCGATTCCTCCTGCC
[3] = system: 4LE-v3 (DNA, aptamer) TCCTTCGCACAGCACACCTGCCGTATAGCTCTGAATCAATAGTAGGGATGATGCGGCAGTGGGCTTCGCAGAACAGTGTTTATTCTGCGAGGGGACTAGGATTTTAGGGAGGCGATTCCTCCTGCC

Measured: binding

CC1=N/C(=C\c2cc(F)c(O)c(F)c2)C(=O)N1CC(F)(F)F
weak: all assays above
